Data published in PubChem BioAssay AID1963845 (Molecular Pharmacology Branch, DTP, NCI, 2024).

System: 429239-143-T-J1-PDC complex spheroid viability
Assay: Anticancer human tumor 429239-143-T-J1-PDC patient-derived small cell lung carcinoma cell line growth inhibition [POLQ]
Conditions: for IC50: curve of first compound; for viability, T/C: stronger effect = lower value
Summary of the method: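 Growth inhibition in 3D: complex spheroids (tumor PDC, HUVEC, MSC) treated with POLQ inhibitor combinations; where Cmax unknown, highest tested concentration 10 microM, except SN-38 at 1 microM.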

[1] = second compound 0.0316 µM, first compound 0.0316 µM
[2] = second compound 0.0316 µM, first compound 0.1 µM
[3] = second compound 0.0316 µM, first compound 0.316 µM
[4] = second compound 0.0316 µM, first compound 1 µM
[5] = second compound 0.0316 µM, first compound 3.16 µM
[6] = second compound 0.0316 µM, first compound 10 µM
[7] = second compound 0.1 µM, first compound 0.0316 µM
[8] = second compound 0.1 µM, first compound 0.1 µM
[9] = second compound 0.1 µM, first compound 0.316 µM
[10] = second compound 0.1 µM, first compound 1 µM
[11] = second compound 0.1 µM, first compound 3.16 µM
[12] = second compound 0.1 µM, first compound 10 µM
[13] = second compound 0.316 µM, first compound 0.0316 µM
[14] = second compound 0.316 µM, first compound 0.1 µM
[15] = second compound 0.316 µM, first compound 0.316 µM
[16] = second compound 0.316 µM, first compound 1 µM
[17] = second compound 0.316 µM, first compound 3.16 µM
[18] = second compound 0.316 µM, first compound 10 µM
[19] = second compound 1 µM, first compound 0.0316 µM
[20] = second compound 1 µM, first compound 0.1 µM
[21] = second compound 1 µM, first compound 0.316 µM
[22] = second compound 1 µM, first compound 1 µM
[23] = second compound 1 µM, first compound 3.16 µM
[24] = second compound 1 µM, first compound 10 µM
[25] = second compound 3.16 µM, first compound 0.0316 µM
[26] = second compound 3.16 µM, first compound 0.1 µM
[27] = second compound 3.16 µM, first compound 0.316 µM
[28] = second compound 3.16 µM, first compound 1 µM
[29] = second compound 3.16 µM, first compound 3.16 µM
[30] = second compound 3.16 µM, first compound 10 µM
[31] = second compound 10 µM, first compound 0.0316 µM
[32] = second compound 10 µM, first compound 0.1 µM
[33] = second compound 10 µM, first compound 0.316 µM
[34] = second compound 10 µM, first compound 1 µM
[35] = second compound 10 µM, first compound 3.16 µM
[36] = second compound 10 µM, first compound 10 µM
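Further: luminescence signal used as surrogate measure of viable cells; spheroids exposed to compounds for seven days before readout.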
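Wherever viability, T/C is given: 100% = DMSO vehicle control viability as luminescence relative to vehicle.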

For `COc1ccc([C@@H](O)c2cc(-c3ncnc4cc(N5CCOCC5)ccc34)c(F)cc2Cl)nn1` + Nc1ccc(C#CCN(C(=O)Cc2ncc(C(F)(F)F)cc2C(F)(F)F)c2ccc(F)cc2)nn1, the IC50 (second compound 0.0316 µM) was 9.31 µM, the IC50 (second compound 0.1 µM) was 9.66 µM and the IC50 (second compound 0.316 µM) was 8.87 µM. It also gave an IC50 (second compound 1 µM) greater than 10 µM, an IC50 (second compound 3.16 µM) of 8.13 µM and an IC50 (second compound 10 µM) of 7.29 µM. It also gave a viability, T/C [1] of 92%, a viability, T/C [2] of 103% and a viability, T/C [3] of 102%. The viability, T/C [4] was 98.8%, the viability, T/C [5] was 90.1% and the viability, T/C [6] was 47.2%. It also gave a viability, T/C [7] of 97.8%, a viability, T/C [8] of 105% and a viability, T/C [9] of 101%. The viability, T/C [10] was 94.3%, the viability, T/C [11] was 86.1% and the viability, T/C [12] was 48.4%. It also gave a viability, T/C [13] of 107%, a viability, T/C [14] of 101% and a viability, T/C [15] of 102%. It also gave a viability, T/C [16] of 112%, a viability, T/C [17] of 88.8% and a viability, T/C [18] of 45.5%. The viability, T/C [19] was 97.8%, the viability, T/C [20] was 86.6% and the viability, T/C [21] was 97%. It also gave a viability, T/C [22] of 100%, a viability, T/C [23] of 84% and a viability, T/C [24] of 55.8%. For the same compound, the viability, T/C [25] was 106%, the viability, T/C [26] was 102% and the viability, T/C [27] was 96.8%. It also gave a viability, T/C [28] of 96.6%, a viability, T/C [29] of 78.7% and a viability, T/C [30] of 43.5%. It also gave a viability, T/C [31] of 95.2%, a viability, T/C [32] of 94.4% and a viability, T/C [33] of 108%. It also gave a viability, T/C [34] of 97%, a viability, T/C [35] of 72.1% and a viability, T/C [36] of 41.6%.
Compound `CCc1cc2c(N3CCc4c(cc(Cn5ccnc5)cc4-c4cn(C)nc4C(F)(F)F)C3=O)cc(C)nc2c(OC)n1` + Nc1ccc(C#CCN(C(=O)Cc2ncc(C(F)(F)F)cc2C(F)(F)F)c2ccc(F)cc2)nn1 has an IC50 (second compound 0.0316 µM) of 7.23 µM, an IC50 (second compound 0.1 µM) of 8.6 µM and an IC50 (second compound 0.316 µM) of 8.7 µM. It also gave an IC50 (second compound 1 µM) of 7.14 µM, an IC50 (second compound 3.16 µM) of 7.93 µM and an IC50 (second compound 10 µM) of 4.85 µM. The viability, T/C [1] was 104%, the viability, T/C [2] was 94.1% and the viability, T/C [3] was 91.3%. It also gave a viability, T/C [4] of 77.4%, a viability, T/C [5] of 72.1% and a viability, T/C [6] of 41.3%. It also gave a viability, T/C [7] of 98.7%, a viability, T/C [8] of 88.1% and a viability, T/C [9] of 85.8%. For the same compound, the viability, T/C [10] was 82.1%, the viability, T/C [11] was 74.1% and the viability, T/C [12] was 45.4%. The viability, T/C [13] was 103%, the viability, T/C [14] was 91.4% and the viability, T/C [15] was 98.7%. It also gave a viability, T/C [16] of 81.2%, a viability, T/C [17] of 63.4% and a viability, T/C [18] of 48.1%. For the same compound, the viability, T/C [19] was 108%, the viability, T/C [20] was 86.4% and the viability, T/C [21] was 91.7%. For the same compound, the viability, T/C [22] was 80.4%, the viability, T/C [23] was 76% and the viability, T/C [24] was 40%. It also gave a viability, T/C [25] of 101%, a viability, T/C [26] of 110% and a viability, T/C [27] of 88.7%. The viability, T/C [28] was 71.3%, the viability, T/C [29] was 58.7% and the viability, T/C [30] was 46.7%. The viability, T/C [31] was 104%, the viability, T/C [32] was 86.2% and the viability, T/C [33] was 84.2%. It also gave a viability, T/C [34] of 79.3%, a viability, T/C [35] of 64.6% and a viability, T/C [36] of 29.9%.
